The compounds below were run against T1, OGA (Homo sapiens, UniProt O60502) (assay: OGA cellular assay (ICC detection of O-GlcNAcylated proteins in HEK293 cells inducible for P301L mutant human Tau)). Settings: HEK293, HEK293 cells inducible for P301L mutant human Tau, maximum = Thiamet G 200 uM.
T1 construct: HEK293 cells inducible for P301L mutant human Tau (isoform 2N4R) were established at Janssen; endogenous in cells; host or cells: HEK293 cells inducible for P301L mutant human Tau (2N4R)
T1 sequence (O60502 1-916): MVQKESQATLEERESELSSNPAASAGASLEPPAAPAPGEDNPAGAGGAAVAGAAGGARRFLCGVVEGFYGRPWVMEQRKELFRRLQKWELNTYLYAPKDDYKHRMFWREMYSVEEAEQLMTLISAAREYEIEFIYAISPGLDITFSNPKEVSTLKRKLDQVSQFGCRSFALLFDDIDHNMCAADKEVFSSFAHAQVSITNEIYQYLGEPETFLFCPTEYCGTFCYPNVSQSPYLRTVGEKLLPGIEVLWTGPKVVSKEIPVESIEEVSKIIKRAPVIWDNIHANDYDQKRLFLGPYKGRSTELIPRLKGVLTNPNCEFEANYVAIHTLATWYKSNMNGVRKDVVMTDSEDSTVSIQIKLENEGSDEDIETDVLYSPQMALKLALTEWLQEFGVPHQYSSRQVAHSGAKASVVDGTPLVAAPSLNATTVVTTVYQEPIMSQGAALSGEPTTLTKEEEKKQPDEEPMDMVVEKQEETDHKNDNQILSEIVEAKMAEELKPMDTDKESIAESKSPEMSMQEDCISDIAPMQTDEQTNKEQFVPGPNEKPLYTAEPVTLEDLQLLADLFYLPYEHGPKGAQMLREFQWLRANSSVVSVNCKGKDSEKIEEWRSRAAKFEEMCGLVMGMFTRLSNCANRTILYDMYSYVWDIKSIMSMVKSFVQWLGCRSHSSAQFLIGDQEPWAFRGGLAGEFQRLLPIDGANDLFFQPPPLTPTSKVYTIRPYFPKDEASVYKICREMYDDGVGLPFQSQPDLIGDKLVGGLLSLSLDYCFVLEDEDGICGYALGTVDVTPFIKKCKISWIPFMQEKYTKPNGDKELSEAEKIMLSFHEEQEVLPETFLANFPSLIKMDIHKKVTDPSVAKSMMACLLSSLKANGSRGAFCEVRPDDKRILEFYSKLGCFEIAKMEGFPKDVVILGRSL
Assay type: cell-based
Method: HEK293 cells inducible for P301L mutant human Tau (isoform 2N4R) were established at Janssen. Thiamet-G was used for both plate validation (high control) and as reference compound (reference EC50 assay validation). OGA inhibition is evaluated through the immunocytochemical (ICC) detection of O-GlcNAcylated proteins by the use of a monoclonal antibody (CTD110.6; Cell Signaling, #9875) detecting 0-GlcNAcylated residues as previously described (Dorfmueller et al. 2010 Chemistry & biology, 17:1250). Inhibition of OGA will result in an increase of O-GlcNAcylated protein levels resulting in an increased signal in the experiment. Cell nuclei are stained with Hoechst to give a cell culture quality control and a rough estimate of immediate compounds toxicity, if any. ICC pictures are imaged with a Perkin Elmer Opera Phenix plate microscope and quantified with the provided software Perkin Elmer Harmony 4.1.
Cells were propagated in DMEM high Glucose (Sigma, #D5796) following standard procedures. 2 days before the cell assay cells are split, counted and seeded in Poly-D-Lysine (PDL) coated 96-wells (Greiner, #655946) plate at a cell density of 12,000 cells per cm^2 (4,000 cells per well) in 100 μl of Assay Medium (Low Glucose medium is used to reduce basal levels of GlcNAcylation) (Park et al. 2014 The Journal of biological chemistry 289:13519). At the day of compound test medium from assay plates was removed and replenished with 90 μl of fresh Assay Medium. 10 μl of compounds at a 10fold final concentration were added to the wells. Plates were centrifuged shortly before incubation in the cell incubator for 6 hours. DMSO concentration was set to 0.2%. Medium is discarded by applying vacuum. For staining of cells medium was removed and cells washed once with 100 μl D-PBS (Sigma, #D8537). From next step onwards unless other stated assay volume was always 50 μl and incubation was performed without agitation and at room temperature. Cells were fixed in 50 μl of a 4% paraformaldehyde (PFA, Alpha aesar, #043368) PBS solution for 15 minutes at room temperature. […] Before analysis samples were washed 2 times manually for 5 minutes in ICC base buffer.
Imaging is performed using Perkin Elmer Phenix Opera using a water 20× objective and recording 9 fields per well. Intensity readout at 488 nm is used as a measure of O-GlcNAcylation level of total proteins in wells. To assess potential toxicity of compounds nuclei were counted using the Hoechst staining. IC50-values are calculated using parametric non-linear regression model fitting. As a maximum inhibition Thiamet G at a 200 uM concentration is present on each plate. In addition, a concentration response of Thiamet G is calculated on each plate.

SMILES | Emax [%]
Cc1cc(OC[C@H]2CCCN(C(C)c3ccc4sc(C)nc4n3)C2)cc(C)n1 (mixture of isomers) [Compound 46ab] | 85
Cc1cc(OC[C@H]2CCCN(C(C)c3ccc4sc(C)nc4n3)C2)nc(C)n1 (mixture of isomers) [Compound 49ab] | 68
Cc1cc(C[C@@H]2CCN(C(C)c3nc4nc(C)sc4cc3F)C2)cc(C)n1 (mixture of isomers) [Compound 50] | 77
Cc1cc([C@H]2CCCN([C@H](C)c3ccc4sc(C)nc4n3)C2)nc(C)n1 (racemic) [Compound 70] | 55
COc1cc(C[C@H]2CCCN([C@H](C)c3ccc4oc(C)nc4n3)C2)cc(C)n1 (relative stereo) [Compound 23a] | 79
Cc1cc(C[C@H]2CCCN(C(C)c3ccc4sc(C)nc4n3)C2)cc(C)n1 (single isomer, unassigned) [Compound 42b] | 79

The remaining lines, values ahead:

Emax [%] | SMILES
-5 | Cc1cc([C@H]2CCCN([C@@H](C)c3ccc4sc(C)nc4n3)C2)nc(C)n1 (racemic) [Compound 71]
-1 | Cc1cc([C@H]2CCCN([C@H](C)c3ccc4sc(C)nc4n3)C2)cc(C)n1 (racemic) [Compound 75]
67 | Cc1cc([C@H]2CCCN([C@@H](C)c3ccc4sc(C)nc4n3)C2)cc(C)n1 (racemic) [Compound 76]

Same assay, conditions: HEK293 cells inducible for P301L mutant human Tau, 6 hours incubation; read-out: Cellular hOGA; pEC50 (converted)

SMILES | EC50 [nM]
Cc1cc(OC[C@H]2CCCN(C(C)c3ccc4sc(C)nc4n3)C2)cc(C)n1 (mixture of isomers) [Compound 46ab] | 15.8
Cc1cc(OC[C@H]2CCCN(C(C)c3ccc4sc(C)nc4n3)C2)nc(C)n1 (mixture of isomers) [Compound 49ab] | 100
Cc1cc(C[C@@H]2CCN(C(C)c3nc4nc(C)sc4cc3F)C2)cc(C)n1 (mixture of isomers) [Compound 50] | 200
Cc1cc([C@H]2CCCN([C@H](C)c3ccc4sc(C)nc4n3)C2)nc(C)n1 (racemic) [Compound 70] | 794
COc1cc(C[C@H]2CCCN([C@H](C)c3ccc4oc(C)nc4n3)C2)cc(C)n1 (relative stereo) [Compound 23a] | 25.1
Cc1cc(C[C@H]2CCCN(C(C)c3ccc4sc(C)nc4n3)C2)cc(C)n1 (single isomer, unassigned) [Compound 42b] | 10

Results, then the compound that gave them:

EC50 [nM] | SMILES
> 1000 | Cc1cc([C@H]2CCCN([C@@H](C)c3ccc4sc(C)nc4n3)C2)nc(C)n1 (racemic) [Compound 71]
> 1000 | Cc1cc([C@H]2CCCN([C@H](C)c3ccc4sc(C)nc4n3)C2)cc(C)n1 (racemic) [Compound 75]
31.6 | Cc1cc([C@H]2CCCN([C@@H](C)c3ccc4sc(C)nc4n3)C2)cc(C)n1 (racemic) [Compound 76]

These compounds were tested against T2, recombinant human Meningioma Expressed Antigen 5 (MGEA5), also referred to as O-GlcNAcase (OGA) (Homo sapiens, UniProt O60502) (assay: OGA biochemical assay (inhibition of FM-GlcNAc hydrolysis, fluorescence)). Settings: FM-GlcNAc substrate, 6 h at room temperature, read-out: Enzymatic hOGA, pIC50 (converted).
T2 construct: Full length OGA enzyme was purchased at OriGene (cat #TP322411); purchased OriGene TP322411
T2 sequence (O60502 1-916): T1 sequence (O60502 1-916)
Source text: The assay is based on the inhibition of the hydrolysis of fluorescein mono-β-D-N-Acetyl-Glucosamine (FM-GlcNAc) (Mariappa et al. 2015, Biochem J 470:255) by the recombinant human Meningioma Expressed Antigen 5 (MGEA5), also referred to as O-GlcNAcase (OGA). The hydrolysis FM-GlcNAc (Marker Gene technologies, cat #M1485) results in the formation of β-D-N-glucosamineacetate and fluorescein. The fluorescence of the latter can be measured at excitation wavelength 485 nm and emission wavelength 538 nm. An increase in enzyme activity results in an increase in fluorescence signal. Full length OGA enzyme was purchased at OriGene (cat #TP322411). The enzyme was stored in 25 mM Tris.HCl, pH 7.3, 100 mM glycine, 10% glycerol at −20° C. Thiamet G and GlcNAcStatin were tested as reference compounds (Yuzwa et al. 2008 Nature Chemical Biology 4:483; Yuzwa et al. 2012 Nature Chemical Biology 8:393). The assay was performed in 200 mM Citrate/phosphate buffer supplemented with 0.005% Tween-20. 35.6 g Na2HPO4 2H2O (Sigma, #C0759) were dissolved in 1 L water to obtain a 200 mM solution. 19.2 g citric acid (Merck, #1.06580) was dissolved in 1 L water to obtain a 100 mM solution. pH of the sodiumphosphate solution was adjusted with the citric acid solution to 7.2. The buffer to stop the reaction consists of a 500 mM Carbonate buffer, pH 11.0. 734 mg FM-GlcNAc were dissolved in 5.48 mL DMSO to obtain a 250 mM solution and was stored at −20° C. OGA was used at a 2 nM concentration and FM-GlcNAc at a 100 uM final concentration. Dilutions were prepared in assay buffer.
50 nl of a compound dissolved in DMSO was dispensed on Black Proxiplate™ 384 Plus Assay plates (Perkin Elmer, #6008269) and 3 μl fl-OGA enzyme mix added subsequently. Plates were pre-incubated for 60 min at room temperature and then 2 μl FM-GlcNAc substrate mix added. […] Plates were briefly centrifuged for 1 min at 1000 rpm and incubate at room temperature for 6 h. To stop the reaction 5 μl STOP buffer were added and plates centrifuge again 1 min at 1000 rpm. Fluorescence was quantified in the Thermo Scientific Fluoroskan Ascent or the PerkinElmer EnVision with excitation wavelength 485 nm and emission wavelength 538 nm.
For analysis a best-fit curve is fitted by a minimum sum of squares method. From this an IC50 value and Hill coefficient was obtained. High control (no inhibitor) and low control (saturating concentrations of standard inhibitor) were used to define the minimum and maximum values.

SMILES | IC50 [nM]
Cc1cc(OC[C@H]2CCCN(C(C)c3ccc4sc(C)nc4n3)C2)cc(C)n1 (mixture of isomers) [Compound 46ab] | 5.01
Cc1cc(OC[C@H]2CCCN(C(C)c3ccc4sc(C)nc4n3)C2)nc(C)n1 (mixture of isomers) [Compound 49ab] | 12.6
Cc1cc(C[C@@H]2CCN(C(C)c3nc4nc(C)sc4cc3F)C2)cc(C)n1 (mixture of isomers) [Compound 50] | 20
Cc1cc([C@H]2CCCN([C@H](C)c3ccc4sc(C)nc4n3)C2)nc(C)n1 (racemic) [Compound 70] | 63.1
COc1cc(C[C@H]2CCCN([C@H](C)c3ccc4oc(C)nc4n3)C2)cc(C)n1 (relative stereo) [Compound 23a] | 7.94
Cc1cc(C[C@H]2CCCN(C(C)c3ccc4sc(C)nc4n3)C2)cc(C)n1 (single isomer, unassigned) [Compound 42b] | 2.51

The remaining lines, values ahead:

IC50 [nM] | SMILES
7940 | Cc1cc([C@H]2CCCN([C@@H](C)c3ccc4sc(C)nc4n3)C2)nc(C)n1 (racemic) [Compound 71]
2000 | Cc1cc([C@H]2CCCN([C@H](C)c3ccc4sc(C)nc4n3)C2)cc(C)n1 (racemic) [Compound 75]
5.01 | Cc1cc([C@H]2CCCN([C@@H](C)c3ccc4sc(C)nc4n3)C2)cc(C)n1 (racemic) [Compound 76]

Same assay, conditions: FM-GlcNAc substrate, maximal effect

Enzymatic Emax (%) | SMILES
101 | Cc1cc(C[C@H]2CCCN(C(C)c3ccc4sc(C)nc4n3)C2)cc(C)n1 (single isomer, unassigned) [Compound 42b]

Same assay, conditions: FM-GlcNAc substrate, maximal effect, read-out: Enzymatic Emax (%)

SMILES | Emax [%]
Cc1cc(OC[C@H]2CCCN(C(C)c3ccc4sc(C)nc4n3)C2)cc(C)n1 (mixture of isomers) [Compound 46ab] | 101
Cc1cc(OC[C@H]2CCCN(C(C)c3ccc4sc(C)nc4n3)C2)nc(C)n1 (mixture of isomers) [Compound 49ab] | 100
Cc1cc(C[C@@H]2CCN(C(C)c3nc4nc(C)sc4cc3F)C2)cc(C)n1 (mixture of isomers) [Compound 50] | 102
Cc1cc([C@H]2CCCN([C@H](C)c3ccc4sc(C)nc4n3)C2)nc(C)n1 (racemic) [Compound 70] | 98
COc1cc(C[C@H]2CCCN([C@H](C)c3ccc4oc(C)nc4n3)C2)cc(C)n1 (relative stereo) [Compound 23a] | 101

Further lines, results first:

Emax [%] | SMILES
51 | Cc1cc([C@H]2CCCN([C@@H](C)c3ccc4sc(C)nc4n3)C2)nc(C)n1 (racemic) [Compound 71]
86 | Cc1cc([C@H]2CCCN([C@H](C)c3ccc4sc(C)nc4n3)C2)cc(C)n1 (racemic) [Compound 75]
98 | Cc1cc([C@H]2CCCN([C@@H](C)c3ccc4sc(C)nc4n3)C2)cc(C)n1 (racemic) [Compound 76]

— patent US20210115040A1, “OGA INHIBITOR COMPOUNDS” (Janssen Pharmaceutica NV, priority 2018, published 2021)
